Assay: HCV replicon assay (luciferase reporter, ET cell line)
Format: cell-based
Conditions: Hepatitis C virus, HCV replicon luciferase activity in ET cells
Procedure, shortened: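 EC50 and, via WST-1 cytotoxicity, TC50 were fitted with a Hill-coefficient equation to % inhibition across 10 two-fold dilutions. Compounds at 0.1 nM-[…] with 0.5% DMSO were applied 24 h post-seeding to replicon-bearing ET cells (luc-ubi-neo/NS3-5B, adaptive mutations). Firefly luciferase signal was measured after 48-72 h.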

Question: Which inhibition at 10 µM does the source give for `O=C(c1nc2c(C(F)(F)F)cc(-c3ccccc3)cn2c1Cl)N1CCC(c2cccc(F)c2)C1` (centres unmarked) [Compound 641, (3-Chloro-6-phenyl-8-trifluoromethyl-imidazo[1,2-a]pyridin-2-yl)-[3-(3-fluoro-phenyl)-pyrrolidin-1-yl]-methanone] here?
Answer: The inhibition at 10 µM was 80.9%.

Question: Which inhibition at 10 µM does the source give for `CC(C)(C)OC(=O)NC1CN(C(=O)c2nc3c(C(F)(F)F)cc(-c4ccoc4)cn3c2Cl)C1` [Compound 489, [1-(3-Chloro-6-furan-3-yl-8-trifluoromethyl-imidazo[1,2-a]pyridine-2-carbonyl)-azetidin-3-yl]-carbamic Acid Tert-butyl Ester] here?
Answer: Its inhibition at 10 µM is 33%.

Question: Which inhibition at 10 µM does the source give for `O=C(c1nc2c(C(F)(F)F)cc(-c3ccoc3)cn2c1Cl)N1CCN(c2ccncc2)CC1` [Compound 533, (3-Chloro-6-furan-3-yl-8-trifluoromethyl-imidazo[1,2-a]pyridine-2-yl)-[4-pyridin-4-yl-piperazin-1-yl]-methanone] here?
Answer: The inhibition at 10 µM was 23.4%.

Question: With `COC(=O)Cc1c(C(=O)NCc2cccs2)nc2c(C(F)(F)F)cc(-c3ccoc3)cn12` [Compound 222, {6-Furan-3-yl-2-[(thiophen-2-ylmethyl)-carbamoyl]-8-trifluoromethyl-imidazo[1,2-a]pyridin-3-yl}-acetic Acid Methyl Ester] as the compound, how does the inhibition at 10 µM read?
Answer: The inhibition at 10 µM was 66.1%.

Question: For `O=C(c1nc2c(C(F)(F)F)cc(-c3ccoc3)cn2c1Cl)N1CCN(c2nccs2)CC1` [Compound 536, (3-Chloro-6-furan-3-yl-8-trifluoromethyl-imidazo[1,2-a]pyridine-2-yl)-(4-thiazol-2-yl-piperazin-1-yl)-methanone], which inhibition at 10 µM is on record?
Answer: The inhibition at 10 µM was 95.8%.

Question: With `FC(F)(F)c1cc(-c2ccco2)cn2c(Cl)c(-c3nc(Cc4ccccc4)no3)nc12` [Compound 656, 2-(3-Benzyl-[1,2,4]oxadiazol-5-yl)-3-chloro-6-furan-2-yl-8-trifluoromethyl-imidazo[1,2-a]pyridine] as the compound, how does the inhibition at 10 µM read?
Answer: The inhibition at 10 µM was 34.1%.

Question: With `O=C(NCC1CCCO1)c1nc2c(C(F)(F)F)cc(-c3ccco3)cn2c1Cl` (centres unmarked) [Compound 184, 3-Chloro-6-furan-2-yl-8-trifluoromethyl-imidazo[1,2-a]pyridine-2-carboxylic acid (tetrahydro-furan-2-ylmethyl)-amide] as the compound, how does the inhibition at 10 µM read?
Answer: The inhibition at 10 µM was 84.4%.

Question: Which inhibition at 10 µM does the source give for `COc1cccc(CNC(=O)c2nc3c(C(F)(F)F)cc(-c4ccco4)cn3c2Cl)c1` [Compound 191, 3-Chloro-6-furan-2-yl-8-trifluoromethyl-imidazo[1,2-a]pyridine-2-carboxylic acid 3-methoxy-benzylamide] here?
Answer: The inhibition at 10 µM was 2.3%.

Question: Which inhibition at 10 µM does the source give for `CCS(=O)(=O)NC1CN(C(=O)c2nc3c(C(F)(F)F)cc(-c4ccoc4)cn3c2Cl)C1` [Compound 500, Ethanesulfonic Acid[1-(3-chloro-6-furan-3-yl-8-trifluoromethyl-imidazo[1,2-a]pyridine-2-carbonyl)-azetidin-3-yl]-amide] here?
Answer: Its inhibition at 10 µM is 98%.

Question: For `O=C(c1cn2cc(-c3cn[nH]c3)cc(C(F)(F)F)c2n1)N1CCC(c2ccc(F)cc2)C1` (centres unmarked) [Compound 255, [3-(4-Fluoro-phenyl)-pyrrolidin-1-yl]-[6-(1H-pyrazol-4-yl)-8-trifluoromethyl-imidazo[1,2-a]pyridin-2-yl]-methanone], which inhibition at 10 µM is on record?
Answer: Its inhibition at 10 µM is 76.6%.

Question: For `CC(C)(C)OC(=O)n1cccc1-c1cc(C(F)(F)F)c2nc(C(=O)NCc3cccs3)c(Cl)n2c1` [Compound 281, 2-{3-Chloro-2-[(thiophen-2-ylmethyl)-carbamoyl]-8-trifluoromethyl-imidazo[1,2-a]pyridin-6-yl}-pyrrole-1-carboxylic Acid Tert-butyl Ester], which inhibition at 10 µM is on record?
Answer: Its inhibition at 10 µM is 69.3%.

Question: With `O=C(NCCc1ccccn1)c1nc2c(C(F)(F)F)cc(-c3ccoc3)cn2c1Cl` [Compound 554, 3-Chloro-6-furan-3-yl-8-trifluoromethyl-imidazo[1,2-a]pyridine-2-carboxylic acid (2-pyridin-2-yl-ethyl)-amide] as the compound, how does the inhibition at 10 µM read?
Answer: Its inhibition at 10 µM is 97.4%.

Question: Which inhibition at 10 µM does the source give for `O=C(c1nc2c(C(F)(F)F)cc(-c3ccoc3)cn2c1Cl)N1CCC(c2ccccc2F)CC1` [Compound 275, (3-chloro-6-furan-3-yl-8-trifluoromethyl-imidazo[1,2-a]pyridine-2-yl)-[4-(2-fluoro-phenyl)-piperidin-1-yl]-methanone] here?
Answer: Its inhibition at 10 µM is 97.8%.

Question: Which inhibition at 10 µM does the source give for `O=C(c1nc2c(C(F)(F)F)cc(-c3ccoc3)cn2c1Cl)N1CC=C(c2ncccc2F)CC1` [Compound 571, (3-Chloro-6-furan-3-yl-8-trifluoromethyl-imidazo[1,2-a]pyridin-2-yl)-(3-fluoro-3′,6′-dihydro-2′H-[2,4′]bipyridinyl-1′-yl)-methanone] here?
Answer: Its inhibition at 10 µM is 97.8%.

Question: Which inhibition at 10 µM does the source give for `O=C(c1nc2c(C(F)(F)F)cc(-c3ccoc3)cn2c1Cl)N1CC=C(c2ccoc2)CC1` [Compound 575, (3-Chloro-6-furan-3-yl-8-trifluoromethyl-imidazo[1,2-a]pyridine-2-yl)-(4-furan-3-yl-3,6-dihydro-2H-pyridin-1-yl)-methanone] here?
Answer: The inhibition at 10 µM was 94.3%.

Question: With `CN1CCN(C(=O)c2nc3c(C(F)(F)F)cc(-c4ccco4)cn3c2Cl)C(c2ccccc2)C1` (centres unmarked) [Compound 320, (3-Chloro-6-furan-2-yl-8-trifluoromethyl-imidazo[1,2-a]pyridin-2-yl)-(4-methyl-2-phenyl-piperazin-1-yl)-methanone] as the compound, how does the inhibition at 10 µM read?
Answer: Its inhibition at 10 µM is 0.6%.

Question: For `O=C(c1nc2c(C(F)(F)F)cc(-c3cn[nH]c3)cn2c1Cl)N1CCC(c2cccs2)C1` (centres unmarked) [Compound 441, [3-Chloro-6-(1H-pyrazol-4-yl)-8-trifluoromethyl-imidazo[1,2-a]pyridin-2-yl]-(3-thiophen-2-yl-pyrrolidin-1-yl)-methanone], which inhibition at 10 µM is on record?
Answer: Its inhibition at 10 µM is 97.6%.

Question: For `O=C(NCc1cccs1)c1nn2c(I)cc(-c3ccccc3)cc2c1Br` [Compound 120, 3-Bromo-7-iodo-5-phenyl-pyrazolo[1,5-a]pyridine-2-carboxylic Acid (thiophen-2-ylmethyl)-amide], which inhibition at 10 µM is on record?
Answer: Its inhibition at 10 µM is 66.6%.

Question: With `O=C(c1nc2c(C(F)(F)F)cc(-c3ccoc3)cn2c1Cl)N1CCN(c2ccccc2)CC1` [Compound 534, (3-Chloro-6-furan-3-yl-8-trifluoromethyl-imidazo[1,2-a]pyridine-2-yl)-(4-phenyl-piperazin-1-yl)-methanone] as the compound, how does the inhibition at 10 µM read?
Answer: Its inhibition at 10 µM is 77.6%.

Question: With `O=C(c1nc2c(C(F)(F)F)cc(-c3cccc(F)c3)cn2c1Cl)N1CCC(c2ccc(F)cc2)C1` (centres unmarked) [Compound 234, [3-Chloro-6-(3-fluoro-phenyl)-8-trifluoromethyl-imidazo[1,2-a]pyridin-2-yl]-[3-(4-fluoro-phenyl)-pyrrolidin-1-yl]-methanone] as the compound, how does the inhibition at 10 µM read?
Answer: The inhibition at 10 µM was 81.8%.

Question: Which inhibition at 10 µM does the source give for `O=C(c1nc2c(C(F)(F)F)cc(-c3ccoc3)cn2c1Cl)N1C=C(c2cscn2)CCC1` [Compound 588, (3-Chloro-6-furan-3-yl-8-trifluoromethyl-imidazo[1,2-a]pyridin-2-yl)-(5-thiazol-4-yl-3,4-dihydro-2H-pyridin-1-yl)-methanone] here?
Answer: Its inhibition at 10 µM is 84.5%.

Question: Which inhibition at 10 µM does the source give for `O=C(NCc1ccccc1OC(F)(F)F)c1nc2c(C(F)(F)F)cc(-c3ccco3)cn2c1Cl` [Compound 202, 3-Chloro-6-furan-2-yl-8-trifluoromethyl-imidazo[1,2-a]pyridine-2-carboxylic acid 2-trifluoromethoxy-benzylamide] here?
Answer: The inhibition at 10 µM was 78.1%.

Question: With `O=C(c1nc2c(C(F)(F)F)cc(-c3ccoc3)cn2c1Cl)N1CCCC(c2ccc(F)cc2)C1` (centres unmarked) [Compound 548, (3-Chloro-6-furan-3-yl-8-trifluoromethyl-imidazo[1,2-a]pyridin-2-yl)-[3-(4-fluoro-phenyl)-piperidin-1-yl)-methanone] as the compound, how does the inhibition at 10 µM read?
Answer: Its inhibition at 10 µM is 91.2%.

Question: For `O=C(NCc1ccccc1)c1nc2c(C(F)(F)F)cc(-c3ccco3)cn2c1Cl` [Compound 174, 3-Chloro-6-furan-2-yl-8-trifluoromethyl-imidazo[1,2-a]pyridine-2-carboxylic acid benzylamide], which inhibition at 10 µM is on record?
Answer: The inhibition at 10 µM was 85.7%.

Question: With `O=C(NCc1cccs1)c1nc2c(C(F)(F)F)cc(-c3ccc[nH]3)cn2c1Cl` [Compound 293, 3-Chloro-6-(1H-pyrrol-2-yl)-8-trifluoromethyl-imidazo[1,2-a]pyridine-2-carboxylic Acid(thiophen-2-ylmethyl)-amide] as the compound, how does the inhibition at 10 µM read?
Answer: Its inhibition at 10 µM is 87.2%.

Question: With `O=C(c1nc2c(C(F)(F)F)cc(-c3ccoc3)cn2c1Cl)N1N=C(c2ccoc2)CC1c1cc(Br)ccc1O` (centres unmarked) [Compound 472, [5-(5-Bromo-2-hydroxy-phenyl)-3-furan-3-y-4,5-dihydro-pyrazol-1-yl]-(3-chloro-6-furan-3-yl-8-trifluoromethyl-imidazo[1,2-a]pyridin-2-yl)-methanone] as the compound, how does the inhibition at 10 µM read?
Answer: The inhibition at 10 µM was 86.6%.

Question: For `O=C(c1nc2c(C(F)(F)F)cc(-c3ccoc3)cn2c1Cl)N1CCN(c2ccc(C(F)(F)F)cc2)CC1` [Compound 539], which inhibition at 10 µM is on record?
Answer: The inhibition at 10 µM was 78.9%.

Question: For `O=C(NCc1cccs1)c1nc2c(C(F)(F)F)cc(/C=C/c3ccccc3)cn2c1Cl` [Compound 287, 3-Chloro-6-styryl-8-trifluoromethyl-imidazo[1,2-a]pyridine-2-carboxylic Acid (thiophen-2-ylmethyl)-amide], which inhibition at 10 µM is on record?
Answer: Its inhibition at 10 µM is 52.3%.

Question: Which inhibition at 10 µM does the source give for `O=C(c1nc2c(C(F)(F)F)cc(-c3ccoc3)cn2c1Br)N1CCC(c2ccc(F)cc2)C1` (centres unmarked) [Compound 253, (3-Bromo-6-furan-3-yl-8-trifluoromethyl-imidazo[1,2-a]pyridin-2-yl)-[3-(4-fluoro-phenyl)-pyrrolidin-1-yl]-methanone] here?
Answer: The inhibition at 10 µM was 98%.

Question: For `O=C(NCc1cccs1)c1nc2c(C(F)(F)F)cc(-c3ccoc3)cn2c1Cl` [Compound 157, 3-Chloro-6-furan-3-yl-8-trifluoromethyl-imidazo[1,2-a]pyridine-2-carboxylic acid (thiophen-2-ylmethyl)-amide], which inhibition at 10 µM is on record?
Answer: Its inhibition at 10 µM is 97.8%.

Question: Which inhibition at 10 µM does the source give for `O=C(NCc1cccs1)c1nc2c(C(F)(F)F)cc(-c3ccncc3)cn2c1Cl` [Compound 207, 3-Chloro-6-pyridin-4-yl-8-trifluoromethy-imidazo[1,2-a]pyridine-2-carboxylic acid (thiophen-2-ylmethyl)-amide] here?
Answer: Its inhibition at 10 µM is 85.7%.

Question: With `O=C(NCc1cccs1)c1nc2c(C(F)(F)F)cc(-c3cn[nH]c3)cn2c1Cl` [Compound 290, 3-Chloro-6-(1H-pyrazol-4-yl)-8-trifluoromethyl-imidazo[1,2-a]pyridine-2-carboxylic Acid(thiophen-2-ylmethyl)-amide] as the compound, how does the inhibition at 10 µM read?
Answer: The inhibition at 10 µM was 93.9%.
